The term IC50 denotes the concentration at which inhibition is half-maximal. Read a high IC50 as weaker potency in that assay. A word on the clearance: it is the volume of plasma or blood freed of the substance per unit of time.

One compound from patent US10633397B2, “Substituted polycyclic pyridone derivatives and prodrugs thereof” (priority 2015, dated 2020) can be followed below.

The structures appear in SMILES notation. A value given as a limit tells only on which side of the number the result lay.

One series addresses T1, CYP1A2 (Homo sapiens, UniProt P05177).
T1 construct: Using commercially available pooled human hepatic microsome; from tissue
T1 sequence (P05177 1-516): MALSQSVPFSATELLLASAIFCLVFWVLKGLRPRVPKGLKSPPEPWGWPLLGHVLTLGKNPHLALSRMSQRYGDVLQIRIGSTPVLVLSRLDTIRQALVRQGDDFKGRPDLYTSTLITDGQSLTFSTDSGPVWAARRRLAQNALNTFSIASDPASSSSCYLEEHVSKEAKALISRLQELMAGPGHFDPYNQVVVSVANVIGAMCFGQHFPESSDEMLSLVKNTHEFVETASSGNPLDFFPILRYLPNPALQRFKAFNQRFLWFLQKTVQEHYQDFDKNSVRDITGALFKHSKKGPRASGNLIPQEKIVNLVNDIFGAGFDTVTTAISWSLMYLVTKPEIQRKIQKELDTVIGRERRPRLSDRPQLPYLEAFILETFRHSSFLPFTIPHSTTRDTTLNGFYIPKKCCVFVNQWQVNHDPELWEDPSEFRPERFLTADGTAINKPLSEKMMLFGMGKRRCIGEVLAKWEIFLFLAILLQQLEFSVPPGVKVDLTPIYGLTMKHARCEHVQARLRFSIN
Put plainly: biochemical. It counts as in vitro ADME. The text has this:
(§1) Test Example 3: CYP Inhibition Test
(§2) Using commercially available pooled human hepatic microsome, and employing, as markers, 7-ethoxyresorufin O-deethylation (CYP1A2), tolbutamide methyl-hydroxylation (CYP2C9), mephenytoin 4′-hydroxylation (CYP2C19), dextromethorphan O-demethylation (CYP2D6), and terfenedine hydroxylation (CYP3A4) as typical substrate metabolism reactions of human main five CYP enzyme forms (CYP1A2, 2C9, 2C19, 2D6, 3A4), an inhibitory degree of each metabolite production amount by a compound of the present invention was assessed.
(§3) The reaction conditions were as follows: substrate, 0.5 μmol/L ethoxyresorufin (CYP1A2), 100 μmol/L tolbutamide (CYP2C9), 50 μmol/L S-mephenytoinmephenitoin (CYP2C19), 5 μmol/L dextromethorphan (CYP2D6), 1 μmol/L terfenedine (CYP3A4); reaction time, 15 minutes; reaction temperature, 37° C.; enzyme, pooled human hepatic microsome 0.2 mg protein/mL; concentration of a compound of the present invention, 1, 5, 10, 20 μmol/L (four points).
(§4) Each five kinds of substrates, human hepatic microsome, or a compound of the present invention in 50 mmol/L Hepes buffer as a reaction solution was added to a 96-well plate at the composition as described above, NADPH, as a cofactor was added to initiate metabolism reactions as markers and, after the incubation at 37° C. for 15 minutes, a methanol/acetonitrile=1/1 (v/v) solution was added to stop the reaction. After the centrifugation at 3000 rpm for 15 minutes, resorufin (CYP1A2 metabolite) in the supernatant was quantified by a fluorescent multilabel counter and toltributamide hydroxide (CYP2C9P metabolite), mephenytoin 4′ hydroxide (CYP2C19 metabolite), […] (CYP2D6 metabolite), and terfenadine alcohol (CYP3A4 metabolite) were quantified by LC/MS/MS.

The next series deals with T2, CYP2C19 (Homo sapiens, UniProt P33261).
T2 construct: Using commercially available pooled human hepatic microsome; from tissue
T2 sequence (P33261 whole entry): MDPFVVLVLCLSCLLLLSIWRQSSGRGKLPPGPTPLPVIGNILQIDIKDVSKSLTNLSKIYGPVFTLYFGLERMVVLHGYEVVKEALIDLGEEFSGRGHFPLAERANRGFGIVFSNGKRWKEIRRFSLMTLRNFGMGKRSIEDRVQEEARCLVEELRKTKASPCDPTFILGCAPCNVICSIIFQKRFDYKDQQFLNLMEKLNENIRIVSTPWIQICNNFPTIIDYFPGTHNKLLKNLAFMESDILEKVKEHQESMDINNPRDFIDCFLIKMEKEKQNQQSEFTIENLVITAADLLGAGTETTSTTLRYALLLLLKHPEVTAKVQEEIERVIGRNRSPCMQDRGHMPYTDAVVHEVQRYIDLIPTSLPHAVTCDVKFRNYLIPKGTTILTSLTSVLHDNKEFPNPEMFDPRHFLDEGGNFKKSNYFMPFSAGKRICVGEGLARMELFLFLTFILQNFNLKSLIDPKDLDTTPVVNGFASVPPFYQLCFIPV
Put plainly: biochemical. It counts as in vitro ADME.
From the text: as §1, §2, §3, §4

The target of the next series is T3, CYP2C9 (Homo sapiens, UniProt P11712).
T3 construct: Using commercially available pooled human hepatic microsome; from tissue
T3 sequence (P11712 whole entry): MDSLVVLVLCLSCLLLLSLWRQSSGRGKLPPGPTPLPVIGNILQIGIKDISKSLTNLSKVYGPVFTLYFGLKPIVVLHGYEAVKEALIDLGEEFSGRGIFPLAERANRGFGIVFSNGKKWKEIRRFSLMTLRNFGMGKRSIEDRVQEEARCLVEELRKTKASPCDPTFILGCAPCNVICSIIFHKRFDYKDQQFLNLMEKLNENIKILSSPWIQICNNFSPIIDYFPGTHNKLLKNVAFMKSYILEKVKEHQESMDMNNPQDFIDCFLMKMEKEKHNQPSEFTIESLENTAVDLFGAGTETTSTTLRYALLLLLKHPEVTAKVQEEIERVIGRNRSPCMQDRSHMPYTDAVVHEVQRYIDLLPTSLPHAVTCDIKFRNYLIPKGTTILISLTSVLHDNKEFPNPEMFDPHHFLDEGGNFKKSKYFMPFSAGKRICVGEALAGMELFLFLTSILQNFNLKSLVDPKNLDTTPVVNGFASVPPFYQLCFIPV
The series can be described thus: biochemical. Format: in vitro ADME.
From the text: as §1, §2, §3, §4

A further series deals with T4, CYP2D6 (Homo sapiens, UniProt P10635).
T4 construct: Using commercially available pooled human hepatic microsome; from tissue
T4 sequence (P10635 whole entry): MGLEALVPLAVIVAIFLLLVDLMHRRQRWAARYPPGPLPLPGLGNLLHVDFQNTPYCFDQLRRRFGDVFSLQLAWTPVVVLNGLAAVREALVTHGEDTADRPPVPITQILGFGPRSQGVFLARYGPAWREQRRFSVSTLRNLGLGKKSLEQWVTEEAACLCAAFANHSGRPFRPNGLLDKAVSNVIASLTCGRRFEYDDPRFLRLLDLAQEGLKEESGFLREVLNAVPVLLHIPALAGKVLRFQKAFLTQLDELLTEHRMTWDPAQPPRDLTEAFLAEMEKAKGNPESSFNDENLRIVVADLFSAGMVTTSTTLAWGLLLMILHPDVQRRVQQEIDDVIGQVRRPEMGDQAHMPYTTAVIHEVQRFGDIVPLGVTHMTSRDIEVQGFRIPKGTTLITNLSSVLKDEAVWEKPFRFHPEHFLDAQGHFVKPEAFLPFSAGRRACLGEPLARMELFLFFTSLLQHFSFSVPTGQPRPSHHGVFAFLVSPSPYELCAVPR
The series can be described thus: biochemical. It counts as in vitro ADME.
From the text: as §1, §2, §3, §4

In another series the target is T5, CYP3A4 (Homo sapiens, UniProt P08684).
T5 construct: Using commercially available pooled human hepatic microsome; from tissue
T5 sequence (P08684 whole entry): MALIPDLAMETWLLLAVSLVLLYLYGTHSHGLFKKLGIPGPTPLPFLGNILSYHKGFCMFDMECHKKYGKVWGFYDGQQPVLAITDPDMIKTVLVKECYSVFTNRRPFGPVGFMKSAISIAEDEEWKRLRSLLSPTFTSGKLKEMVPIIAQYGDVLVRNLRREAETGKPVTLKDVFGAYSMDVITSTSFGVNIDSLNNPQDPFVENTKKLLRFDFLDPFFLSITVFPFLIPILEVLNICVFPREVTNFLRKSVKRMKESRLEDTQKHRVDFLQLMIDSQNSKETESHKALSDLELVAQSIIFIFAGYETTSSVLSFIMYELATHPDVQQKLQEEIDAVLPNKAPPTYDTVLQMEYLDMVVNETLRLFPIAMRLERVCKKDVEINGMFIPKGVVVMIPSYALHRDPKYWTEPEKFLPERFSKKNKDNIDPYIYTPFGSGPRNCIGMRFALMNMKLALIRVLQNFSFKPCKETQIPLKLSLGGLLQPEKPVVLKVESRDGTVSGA
Put plainly: biochemical. It counts as in vitro ADME.
From the text: as §1, §2, §3, §4

The nature of series [1]: Metabolism stability test. Format: in vitro ADME. Conditions: human liver microsomes, 30 minutes, 37° C., 2 μmol/L of test compound. As to the method:
Test Example 5: Metabolism Stability Test
Using commercially available pooled human hepatic microsomes, a compound of the present invention was reacted for a constant time, and a remaining rate was calculated by comparing a reacted sample and an unreacted sample, thereby, a degree of metabolism in liver was assessed.
A reaction was performed (oxidative reaction) at 37° C. for 0 minute or 30 minutes in the presence of 1 mmol/L NADPII in 0.2 mL of a buffer (50 mmol/L Tris-HCl pH 7.4, 150 mmol/L potassium chloride, 10 mmol/L magnesium chloride) containing 0.5 mg protein/mL of human liver microsomes. After the reaction, 50 μL of the reaction solution was added to 100 μL of a methanol/acetonitrile=1/1 (v/v), mixed and centrifuged at 3000 rpm for 15 minutes. The compound of the present invention in the supernatant was quantified by LC/MS/MS or Solid Phase Extraction (SPE)/MS, and a remaining amount of the compound of the present invention after the reaction was calculated, letting a compound amount at 0 minute reaction time to be 100%. Hydrolysis reaction was performed in the absence of NADPII and glucuronidation reaction was in the presence of 5 mM UDP-glucuronic acid in place of NADPH, followed by similar operations.

The next series is described as follows: in vivo. The conditions noted are these: rat, SD rats, intravenous administration. As to the method:
Test Example 13: Intravenous Administration Test
Examined experimental materials and method of intravenous administration test
(1) Animals used: SD rats were used.
(2) Rearing conditions: Pellets and sterilized tap water were fed to SD rats ad libitum.
(3) Dosage and grouping: A predetermined dosage was intravenously administered. Groups were set as follows. (Dosage varied for each compound)
Intravenous administration 0.5-1 mg/kg (n=2-3)
(4) Preparation of administration solution: Intravenous administration was performed after solubilization.
(5) Administration method: Intravenous administration was performed with a needle-equipped syringe on the caudal vein.
(6) End point: Blood was collected over time, and the plasma concentration of the compound of the present invention was measured using LC/MS/MS.
(7) Statistical analysis: As for the transition of the plasma concentration of the compound of the present invention, the total body clearance (CLtot) and the elimination half-life (t1/2, z) were calculated using nonlinear least-squares program WinNonlin®.

For the compound `O=C1c2c(O)c(=O)ccn2N([C@@H]2c3ccccc3SCc3c2ccc(F)c3F)[C@@H]2COCCN12` [III-2], the IC50 against CYP1A2, against CYP2C19, against CYP2C9, on CYP2D6 and at CYP3A4 was greater than 20 µM throughout. Moreover, the “% compound remaining after microsomal incubation” value in series [1] is 90.1%. For the same compound, the half-life in “in vivo” (read-out: elimination half-life (t1/2, z) (converted)) is 3.4 h. Further, the clearance in the series “in vivo” (read-out: total body clearance (CLtot)) stood at 16.4 mL/min/kg.
